Test results published in patent publication US20250241890A1, “1,4-DIUREAS AND 1,4-DITHIOUREAS AND USES THEREOF” (Purdue Research Foundation, priority 2024, published 2025).

Key:
[1] = tested on: neuroblastoma cells (SH-SY5Y); assay: MTT cytotoxicity; assay type: cell-based, human; conditions: for cell survival, MTT, difference to DMSO control: 20 μM, 48 hours; for cytotoxicity, MTT: 5 or 10 μM, 24 hours
Procedure: MTT (3-(4,5-Dimethylthiazol-2-yl)-2,5-diphenyltetrazolium bromide) is a tetrazolium salt that is commonly used to detect reductive metabolism in cells for viability, proliferation and cytotoxicity assays. MTT was utilized in order to evaluate metabolic cellular toxicity of compounds 1, 2, and DMSO (vehicle) using human neuroblastoma cells (SH-SY5Y). Cells were diluted in cellular media in order to obtain ˜500,000 cells per condition and grown for 8-12 hours prior treatment. Cellular media (see the material and method section below) was then removed. The cells were then treated with compounds 1 or 2 at 20 μM or DMSO control at 0.05% (FIG. 9) diluted in cellular media followed by an additional incubation of 48 hours. Cellular media was removed, and the cells were treated with 50% MTT in cellular media for 2 hours at 37° C. followed by detergent solution. Differences were considered non-significant (at p<0.05) (FIG. 9) based on the one-way analysis of variance (ANOVA) without post-test performed with GraphPad Prism (version 5).
MTT assay was performed once again with compounds 1 and 2 and DMSO control at 5 and 10 μM. Each well contained ˜500,000 cells (6-well plate) prepared 8-12 hours prior to treatment. The cells were treated for 24 hours, and then MTT method was applied to assess cell survival. […] No differences were detected at p<0.001 using the one-way analysis of variance (ANOVA) with Dunnett's multiple comparison test.

[2] = tested on: neuroblastoma cells (SH-SY5Y); assay: Crystal violet staining cytotoxicity; assay type: cell-based, human; conditions: four days
Procedure: The cytotoxicity of compounds 1 and 2 was assessed using human neuroblastoma cells (SH-SY5Y). Employing the crystal violet staining method, determination of the optical density was used to reflect on the percentage of cells attached to each well (6-well plate format) after treatment with control DMSO (0.14) and compound concentrations at 5 and 10 μM. Treated cells were incubated at 37° C. with 5% CO2 for four days. […] Compound 2 was also non cytotoxic at higher concentration, i.e., 10 μM. Differences were not statistically significant at […] via one-way analysis of variance ANOVA with post-test (Dunnett's multiple comparison test).

[3] = target: T1, α-syn fibrils (Homo sapiens, UniProt P37840); assay: Transmission electron microscopy (TEM) of α-syn fibrils; assay type: biochemical; conditions: α-syn 2 μM, compound 100 μM, ~22 hours at 37° C.
T1 construct: purchased rPeptide (Watkinsville, GA)

[4] = target: T2, tau isoform 0N4R (Homo sapiens, UniProt P10636); assay: PICUP assay of tau 0N4R oligomer formation; assay type: biochemical; conditions: tau 10 μM, compound 50 μM (molar ratio 1:5)
T2 construct: made in house; host or cells: Rosetta BL21 E. coli
T2 sequence (P10636 1-383 isoform P10636-6): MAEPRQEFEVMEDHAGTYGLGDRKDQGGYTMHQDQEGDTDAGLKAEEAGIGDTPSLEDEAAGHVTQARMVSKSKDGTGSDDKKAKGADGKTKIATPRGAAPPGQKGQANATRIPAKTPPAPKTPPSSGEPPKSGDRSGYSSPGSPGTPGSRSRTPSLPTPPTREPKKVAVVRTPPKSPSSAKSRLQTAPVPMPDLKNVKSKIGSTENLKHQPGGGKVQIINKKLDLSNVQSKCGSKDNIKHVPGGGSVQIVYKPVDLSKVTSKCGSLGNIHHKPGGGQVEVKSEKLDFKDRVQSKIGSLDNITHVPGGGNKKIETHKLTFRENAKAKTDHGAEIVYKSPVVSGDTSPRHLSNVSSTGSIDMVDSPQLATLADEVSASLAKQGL
Procedure: FIG. 5. […] Compounds 1, 2, and 8 were selected for their α-syn anti-oligomerization activity. Compound 7 was used as di-urea counterpart of compound 8, as compound 1 is the di-urea counterpart of compound 2, a dithiourea derivative. Tau (10 μM) was cross-linked (PICUP assay) with different concentrations of the di-substituted aminoindolyl derivatives at 50 μM (molar ratio 1:5).
Chemical and peptide source. Dimethylsulfoxide (DMSO) and thioflavin-T (ThT) were purchased from Alfa Aesar (Ward Hill, MA). Recombinant α-synuclein (α-syn) was procured from rPeptide (WatKinsville, GA). The recombinant p-tau isoform 1N4R was prepared as published previously (Fortin et al. 2021, Sui et al. 2015, Liu et al. 2020). Concerning the preparation of tau 0N4R, a bacterial expression plasmid consisting of the vector pET30a carrying a cDNA encoding the human Tau 0N4R isoform was a kind gift of Dr. Benjamin Wolozin (Boston University). E. coli stock (Rosetta BL21 E. coli (CamR) containing pET30a [0N4R tau wt] (KanR)) was grown in LB medium supplemented with kanamycin (50 μg/mL) and chloramphenicol (50 μg/mL). […] General Characterizations. ^1H and ^13C {1H} NMR spectra were recorded using a 500 MHz Bruker instrument working at a frequency of 500 MHz for ^1H and at 126 MHz for ^13C. […] Thioflavin fluorescence assays. Thioflavin fluorescence assays were used to monitor fibril formation of commercial recombinant α-syn at a final concentration of 2 μM and treated with control DMSO and different compounds. […] Kinetics of fibril formation have been performed using ThT as published previously.^6, 12, 13, 24 The fluorescence emission experiments were performed with the excitation and emission wavelengths set at 440 and 485 nm, respectively, with a Synergy HT multi-mode microplate reader (BioTek, Winooski, VT). Samples were measured in three replicates. […] For each time point, arbitrary units of fluorescence were calculated from the mean values normalized against the maximum value. The percentage of fluorescence intensity at the plateau phase in Table 1 was expressed as mean #SEM. […]

[5] = target: T3, p-tau isoform 1N4R (Homo sapiens, UniProt P10636); assay: PICUP assay of p-tau 1N4R oligomer formation; assay type: biochemical; conditions: p-tau 4 μM, compound 50 μM (molar ratio 1:12.5)
T3 construct: made in house
T3 sequence (P10636 1-412 isoform P10636-7): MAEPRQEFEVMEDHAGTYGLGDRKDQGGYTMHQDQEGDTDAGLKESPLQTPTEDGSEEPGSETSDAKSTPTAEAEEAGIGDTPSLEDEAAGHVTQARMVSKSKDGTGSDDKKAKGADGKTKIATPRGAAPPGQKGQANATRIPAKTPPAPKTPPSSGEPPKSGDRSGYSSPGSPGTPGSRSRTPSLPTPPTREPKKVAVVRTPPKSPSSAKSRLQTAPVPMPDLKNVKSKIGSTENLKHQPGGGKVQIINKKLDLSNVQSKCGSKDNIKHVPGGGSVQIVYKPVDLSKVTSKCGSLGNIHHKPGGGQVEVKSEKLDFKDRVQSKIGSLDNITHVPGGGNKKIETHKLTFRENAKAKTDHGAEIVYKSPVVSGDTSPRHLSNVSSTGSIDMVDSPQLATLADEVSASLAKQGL

effect on α-syn fibrils by TEM [3] | SMILES | cell survival, MTT, difference to DMSO control [1] | cytotoxicity, MTT [1] | cytotoxicity, crystal violet staining ([2]; 5 μM) | effect on tau 0N4R oligomer formation by PICUP [4] | effect on p-tau 1N4R oligomer formation by PICUP [5] | cytotoxicity, crystal violet staining ([2]; 10 μM)
 | O=C(Nc1ccc(NC(=O)Nc2cccc3[nH]ccc23)cc1)Nc1cccc2[nH]ccc12 [Compound 1, 3-(1H-indol-4-yl)-1-(4-{[(1H-indol-4-yl)carbamoyl]amino}phenyl)urea] | non-significant | did not induce cytotoxicity | non cytotoxic |  |  | 
reduced α-syn fibril formation | S=C(Nc1ccc(NC(=S)Nc2cccc3[nH]ccc23)cc1)Nc1cccc2[nH]ccc12 [Compound 2, 3-(1H-indol-4-yl)-1-(4-{[(1H-indol-4-yl)carbamothioyl]amino}phenyl)thiourea] | non-significant | did not induce cytotoxicity | non cytotoxic | None of these compounds were able to reduce the tau 0N4R oligomer formation | failed to inhibit p-tau oligomer formation | non cytotoxic
 | S=C(Nc1ccc(NC(=S)Nc2cccc3cc[nH]c23)cc1)Nc1cccc2cc[nH]c12 [Compound 8, 3-(1H-indol-7-yl)-1-(4-{[(1H-indol-7-yl)carbamothioyl]amino}phenyl)thiourea] |  |  |  | None of these compounds were able to reduce the tau 0N4R oligomer formation |  | 
